Earlier results, collected in patent US8765470B2, “Reprogramming immortalized B-cells to induced pluripotent stem cells” (Cellular Dynamics International, Inc., priority 2010, dated 2014).

Legend:
[1] = test system: EBV replication; conditions: in vitro; Lin et al., 1983
[2] = test system: EBV; conditions: Norseen et al., 2009
[3] = test system: Epstein-Barr virus (EBV); conditions: anti-EBV activity; Kira et al., 2000; read-out: 50% effective concentration
[4] = Kira et al., 2000

Compound | inhibition of EBV replication [1] | effect on EBV proliferation [2] | further results
Nc1nc(=O)n([C@@H]2O[C@H](CO)[C@@H](O)[C@@H]2F)cc1I [1-(2-deoxy-2-fluoro-beta-D-arabinofuranosyl)-5-iodocytosine] | potent inhibitors |  | 
Cc1cn([C@@H]2O[C@H](CO)[C@@H](O)[C@@H]2F)c(=O)[nH]c1=O [1-(2-deoxy-2-fluoro-beta-D-arabinofuranosyl)-5-methyluracil] | potent inhibitors |  | 
CN(C)c1ccc(Nc2c3ccc(NC(=O)CCN4CCCC4)cc3nc3cc(NC(=O)CCN4CCCC4)ccc23)cc1 [BRACO-19] |  | block EBV proliferation | 
O=c1[nH]c(=O)n([C@H]2C[C@H](O)[C@@H](CO)O2)cc1/C=C/Br [E-5-(2-bromovinyl)-2′-deoxyuridine] | potent inhibitors |  | 
C[n+]1cccc(-c2c3nc(c(-c4ccc[n+](C)c4)c4ccc([nH]4)c(-c4ccc[n+](C)c4)c4nc(c(-c5ccc[n+](C)c5)c5ccc2[nH]5)C=C4)C=C3)c1 [TMPyP3] |  | block EBV proliferation | 
C[n+]1ccc(-c2c3nc(c(-c4cc[n+](C)cc4)c4ccc([nH]4)c(-c4cc[n+](C)cc4)c4ccc([nH]4)c(-c4cc[n+](C)cc4)c4nc2C=C4)C=C3)cc1 [TMPyP4] |  | block EBV proliferation | 
O=c1[nH]c(=O)n([C@@H]2CO[C@H](CO)O2)cc1I [beta-L-5-Iododioxolane uracil] |  |  | EC50 [3]: 30 nM; 50% cytotoxic concentration [4]: 1,000 microM
